Data on one compound can be found in publication PMC4541410 (Scientific Reports, 2015).

For data set [1], the system named is T20-resistant HIV-1 variant V38A/N42T. The format is cell-based.
Data set [2] concerns T20-resistant HIV-1 strains.
The target of data set [3] is T1, gp41 6-HB formation between N36 and C34 (Human immunodeficiency virus type 1 group M subtype B, UniProt P04578).
T1 construct: gp41 NHR (“N36”, 546-581); made in house; host or cells: chemical solid-phase FMOC synthesis
Kind of data set: biochemical. The format is biochemical, HIV-1. As for the experimental part: Inhibition of gp41 six-helix bundle formation by a testing peptide was determined with a sandwich ELISA described previously. […] A450 was determined by an ELISA reader (Ultra 384, Tecan).

In data set [4] the test system is 93BR020 (F). It counts as cell-based. Particulars: primary HIV-1 isolate, subtype F; read-out: IC50 (nM), infection by primary isolate 93BR020 (F).
The target of data set [5] is T2, N36 (gp41 NHR peptide) (Human immunodeficiency virus type 1 group M subtype B, UniProt P04578).
T2 construct: gp41 NHR (“N36”, 546-581); made in house; host or cells: chemical solid-phase FMOC synthesis
T2 sequence (P04578 546-581): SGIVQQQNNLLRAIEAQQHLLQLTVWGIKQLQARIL
Kind of data set: CD spectroscopy and thermal midpoint analysis of peptide/N36 complexes. The format is physicochemical, HIV-1. As for the experimental part: Briefly, each peptide or peptide mixture was dissolved in phosphate-buffered saline (PBS: 50 mM sodium phosphate and 150 mM NaCl, pH 7.2) at the final concentration of 10 μM and incubated at 37 °C for 30 min before cooling down to 4 °C. The CD spectra of each sample were acquired on a Jasco spectropolarimeter (Model J-815, Jasco Inc., Japan) at 4 °C using a 5 nm bandwidth, 0.1 nm resolution, 0.1 cm path length and an average time of 5.0 sec. Spectra were corrected by the subtraction of a blank corresponding to the solvent composition of each sample. Thermal midpoint analysis was used to determine the temperature at which 50% of the 6-HB formed by the CHR and NHR would decompose. It was monitored at 222 nm from 4 °C to 98 °C by applying a thermal gradient of 5 °C/min. The melting curve was smoothed and the midpoint of the thermal unfolding transition (Tm) values was calculated using Jasco software utilities as described above.

Where a SMILES comes first, the peptide text is derived from it.

T1 sequence (P04578 546-581): as above

Turning to `CC[C@H](C)[C@H](NC(=O)[C@H](CO)NC(=O)[C@H](CCC(=O)O)NC(=O)[C@H](CCC(=O)O)NC(=O)[C@H](CCC(N)=O)NC(=O)[C@H](CCCCN)NC(=O)[C@H](CCCCN)NC(=O)[C@@H](NC(=O)[C@H](CCC(N)=O)NC(=O)[C@H](CCC(=O)O)NC(=O)[C@H](CCC(=O)O)NC(=O)[C@@H](NC(=O)[C@H](CCCCN)NC(=O)[C@H](CCCCN)NC(=O)[C@@H](NC(=O)[C@H](CC(C)C)NC(=O)[C@H](CCC(=O)O)NC(=O)[C@H](CCC(=O)O)NC(=O)[C@H](CO)NC(=O)[C@H](CCCCN)NC(=O)[C@H](CCCCN)NC(=O)[C@@H](NC(=O)[C@H](CC(C)C)NC(=O)[C@H](CCC(=O)O)NC(=O)[C@H](CCC(=O)O)NC(=O)[C@@H](NC(=O)[C@H](CCCCN)NC(=O)[C@H](CCCCN)NC(=O)[C@H](CC(=O)O)NC(=O)[C@H](Cc1c[nH]c2ccccc12)NC(=O)[C@H](CCC(=O)O)NC(=O)[C@H](CCC(=O)O)NC(=O)[C@H](Cc1c[nH]c2ccccc12)NC(=O)[C@@H](NC(=O)[C@H](CCSC)NC(C)=O)[C@@H](C)O)[C@@H](C)CC)[C@@H](C)CC)[C@@H](C)CC)[C@@H](C)CC)[C@@H](C)CC)C(=O)N[C@@H](CCCCN)C(=O)N[C@@H](CCCCN)C(N)=O` [AP3] (Ac-MTWEEWDKKIEELIKKSEELIKKIEEQIKKQEESIKK-NH2), the IC50 (in general, the midpoint of a concentration-inhibition curve) in data set [1] was 90 ± 21.5 nM; in data set [2] (read-out: IC50 against T20-resistant HIV-1 strains (summary), over the T20-resistant strains of Table 1), 13 to 90 nM; in data set [3], 240 nM; in data set [4] it was 19.9 nM. Besides, in data set [2] (AP3 versus AP2), the “fold more effective than AP2 against T20-resistant strains” value was 2- to 4 fold. In data set [3] (AP3 versus AP1), the “fold more potent than AP1 against 6-HB formation” value was “about 30 fold”. In addition, in data set [3] (AP3 versus AP2), the “fold more potent than AP2 against 6-HB formation” value was roughly 15 fold. Further, in data set [5] (CD thermal denaturation at 222 nm, 4 to 98 °C, 5 °C/min, 10 μM in PBS pH 7.2), the “Tm of complex with N36” value is recorded as 83.6 ^oC. The “α-helix content of complex with N36” value in data set [5] (CD, peptide/N36 mixture 10 μM in PBS pH 7.2, 4 °C) is reported as 77.84%.
